Laboratory results reported in ChEMBL document CHEMBL1147811, “Synthesis of EF24-tripeptide chloromethyl ketone: a novel curcumin-related anticancer drug delivery system” (J Med Chem, 2006).

How the values were obtained:
[1] = system: MDA-MB-231; assay: Viability of human TF expressing MDA-MB-231 cell line; type: cell-based
[2] = Viability of human non-TF expressing MCF10 cell line; type: cell-based; conditions: MCF10 cells (non-TF expressing)
[3] = system: Melanocyte; assay: Viability of human non-TF expressing melanocytes; type: cell-based
[4] = system: RPMI-7951; assay: Viability of human TF expressing RPMI7951 cell line; type: cell-based
[5] = system: RPMI-7951; assay: Cytotoxicity against human TF expressing RPMI7951 cell line at 2 uM; type: functional, cell-based
[6] = system: Melanocyte; assay: Cytotoxicity against human non-TF expressing melanocytes at 4 uM; type: functional, cell-based

SMILES	Activity [1]	viability [2]	Activity [3]	Activity [4]	Activity [5]	Activity [6]
N=C(N)NCCC[C@H](NC(=O)[C@H](Cc1ccccc1)NC(=O)[C@H](Cc1ccccc1)NC(=O)CCC(=O)N1C/C(=C\c2ccccc2F)C(=O)/C(=C/c2ccccc2F)C1)C(=O)CCl.O=C(O)C(F)(F)F	Not Active	> 95%	Not Active	Not Active	–	–
O=C1/C(=C/c2ccccc2F)CNC/C1=C\c1ccccc1F	–	–	–	–	Toxic	Toxic
